Literature values in patent US20100160306A1, “Acylated Piperidine Derivatives as Melanocortin-4 Receptor Agonists” (priority 2005, published 2010).

Conditions: injected intramuscularly or subcutaneously, males with psychogenic erectile dysfunction

Ac-Nle-c[Asp-His-DPhe-Arg-Trp-Lys]-NH2 [MT-II]
response rate: 75%
